Data published in patent publication US20060223996A1, “IL-12 modulatory compounds” (Synta Pharmaceuticals Corp., priority 2004, published 2006).

System: IL-12
Test: Human in vitro assay: inhibition of IL-12 production in IFNγ/LPS- or IFNγ/SAC-stimulated human PBMC or THP-1 cells (ELISA)
Assay type: cell-based
Settings: read-out: IC50 Range (representative in vitro IC50 data)
From the text: The biological activities of a heterocyclic compound can be evaluated by a number of cell-based assays. One of such assays can be conducted using cells from human peripheral blood mononuclear cells (PBMC) or human monocytic cell line (THP-1). The cells are stimulated with a combination of human interferon-γ (IFNγ) and lipopolysaccharide or a combination of IFNγ and Staphylococcus aureus Cowan I in the presence of a test compound. The level of inhibition of IL-12 production can be measured by determining the amount of p70 by using a sandwich ELISA assay with anti-human IL-12 antibodies. IC50 of the test compound can then be determined. Specifically, PBMC or THP-1 cells are incubated with the test compound. Cell viability was assessed using the bioreduction of MTS [3-(4,5-dimethylthiazol-2-yl)-5-(3-carboxymethoxyphenyl)-2-(4-sulfophenyl)-2H-tetrazolium](Promega, Madison, Wis.).
Human In Vitro Assay. Human PBMC were isolated by centrifugation using Ficoll-Paque (Pharmacia Biotech, Uppsala, Sweden) and prepared in RPMI medium supplemented with 10% fetal calf serum (FCS), 100 U/mL penicillin, and 100 μg/mL streptomycin. PBMC were plated in wells of a 96-well plate at a concentration of 5×10^5 cells/well, and primed by adding IFNγ (30 U/mL) for 22 h and stimulated by adding LPS (1 μg/mL), or by adding IFNγ (100 U/mL) and then stimulated by adding SAC (0.01%). A test pyrimidine compound was dissolved in DMSO, and added to wells of the 96-well plate. The final DMSO concentration was adjusted to 0.25% in all cultures, including the compound-free control. Human THP-1 cells were plated in wells, primed by adding IFNγ (100 U/mL) for 22 h and stimulated by adding SAC (0.025%) in the presence of different concentrations of the pyrimidine compound. Cell-free supernatants were taken 18 h later for measurement of cytokines. Cell viability was assessed using the bioreduction of MTS. Cell survival was estimated by determining the ratio of the absorbance in compound-treated groups versus compound-free control.
The supernatant was assayed for the amount of IL-12p40, IL-12p70, or IL-10 by using a sandwich ELISA with anti-human antibodies, i.e., a Human IL-12 p40 ELISA kit from R&D Systems (Berkeley, Calif.), and a Human IL-12 p70 or IL-10 ELISA kit from Endogen (Cambridge, Mass.). Assays were based on the manufacturer's instructions.
The biological activities of pyrimidine compounds were tested on human PBMC or THP-1 cells.

Row | SMILES | IC50 [µM]
1 | COCCN(C)c1cc(C(=O)Nc2cc(C(C)(C)C)on2)nc(N2CCOCC2)n1 [Compound 228, 6-[(2-Methoxy-ethyl)-methyl-amino]-2-morpholin-4-yl-pyrimidine-4-carboxylic acid (5-tert-butyl-isoxazol-3-yl)-amide] | ≥ 1
2 | Cc1ccc(-c2csc(NC(=O)Nc3cc(OCCN4CCOCC4)nc(N4CCOCC4)n3)n2)cc1 [Compound 142, 1-[2-Morpholin-4-yl-6-(2-morpholin-4-yl-ethoxy)-pyrimidin-4-yl]-3-(4-p-tolyl-thiazol-2-yl)-urea] | ≥ 1
3 | Cc1[nH]c2ccc(NC(=O)c3cc(OCC[N+]4([O-])CCOCC4)nc(N4CCOCC4)n3)cc2c1C [Compound 27, 2-Morpholin-4-yl-6-[2-(4-oxy-morpholin-4-yl)-ethoxy]-pyrimidine-4-carboxylic acid (2,3-dimethyl-1H-indol-5-yl)-amide] | < 1
4 | CCNC(=O)CNc1cc(C(=O)Nc2ccc3[nH]c(C)c(C)c3c2)nc(N2CCOCC2)n1 [Compound 105, 6-(Ethylcarbamoylmethyl-amino)-2-morpholin-4-yl-pyrimidine-4-carboxylic acid (2,3-dimethyl-1H-indol-5-yl)-amide] | < 1
5 | COCCN(C)c1cc(C(=O)Nc2ccc3c(C(F)(F)F)cc(C(F)(F)F)nc3n2)nc(N2CCOCC2)n1 [Compound 243, 6-[(2-Methoxy-ethyl)-methyl-amino]-2-morpholin-4-yl-pyrimidine-4-carboxylic acid (5,7-bis-trifluoromethyl-[1,8]naphthyridin-2-yl)-amide] | ≥ 1
6 | CON(CCN1CCOCC1)c1cc(C(=O)Nc2ccc3[nH]c(C)c(C)c3c2)nc(N2CCOCC2)n1 [Compound 195, N-(2,3-dimethyl-1H-indol-5-yl)-6-(methoxy(2-morpholinoethyl)amino)-2-morpholinopyrimidine-4-carboxamide] | < 1
7 | COCCN(C)c1cc(C(=O)Nc2ccc(NC(C)=O)cc2)nc(N2CCOCC2)n1 [Compound 165, 6-[(2-Methoxy-ethyl)-methyl-amino]-2-morpholin-4-yl-pyrimidine-4-carboxylic acid (4-acetylamino-phenyl)-amide] | ≥ 1
8 | Cc1[nH]c2ccc(NC(=O)c3cc(NCC(=O)O)nc(N4CCOCC4)n3)cc2c1C [Compound 96, [6-(2,3-Dimethyl-1H-indol-5-ylcarbamoyl)-2-morpholin-4-yl-pyrimidin-4-ylamino]-acetic acid] | < 1
9 | Cc1[nH]c2ccc(NCc3cc(OCCc4ccccn4)nc(N4CCOCC4)n3)cc2c1C [Compound 84, (2,3-Dimethyl-1H-indol-5-yl)-[2-morpholin-4-yl-6-(2-pyridin-2-yl-ethoxy)-pyrimidin-4-ylmethyl]-amine] | < 1
10 | CN(C)c1cccc(NC(=O)c2cc(OCCN3CCOCC3)nc(N3CCOCC3)n2)c1 [Compound 26, 2-Morpholin-4-yl-6-(2-morpholin-4-yl-ethoxy)-pyrimidine-4-carboxylic acid (3-dimethylamino-phenyl)-amide] | < 1
11 | COCCN(C)c1cc(C(=O)NCCc2ccc(C)cc2)nc(N2CCOCC2)n1 [Compound 233, 6-[(2-Methoxy-ethyl)-methyl-amino]-2-morpholin-4-yl-pyrimidine-4-carboxylic acid (2-p-tolyl-ethyl)-amide] | ≥ 1
12 | Nc1cccc(NC(=O)c2cc(OCCN3CCOCC3)nc(N3CCOCC3)n2)c1 [Compound 277, 2-Morpholin-4-yl-6-(2-morpholin-4-yl-ethoxy)-pyrimidine-4-carboxylic acid (3-amino-phenyl)-amide] | < 1
13 | O=C(Nc1ccc2[nH]ccc2c1)c1cc(OCCc2ccccn2)nc(N2CCOCC2)n1 [Compound 4, 2-Morpholin-4-yl-6-(2-pyridin-2-yl-ethoxy)-pyrimidine-4-carboxylic acid (1H-indol-5-yl)-amide] | < 1
14 | Cc1[nH]c2ccc(NC(=O)c3cc(NCC(=O)N4CCc5ccccc5C4)nc(N4CCOCC4)n3)cc2c1C [Compound 103, 6-[2-(3,4-Dihydro-1H-isoquinolin-2-yl)-2-oxo-ethylamino]-2-morpholin-4-yl-pyrimidine-4-carboxylic acid (2,3-dimethyl-1H-indol-5-yl)-amide] | < 1
15 | COCCN(C)c1cc(C(=O)Nc2cccc(C(C)C)c2)nc(N2CCOCC2)n1 [Compound 205, N-(3-isopropylphenyl)-6-((2-methoxyethyl)(methyl)amino)-2-morpholinopyrimidine-4-carboxamide] | < 1
16 | COc1ccc(CCOc2cc(C(=O)Nc3cccc(C)c3)cc(N3CCOCC3)n2)cc1OC [Compound 65, 2-[2-(3,4-Dimethoxy-phenyl)-ethoxy]-6-morpholin-4-yl-N-m-tolyl-isonicotinamide] | ≥ 1
17 | CNc1ccc(NC(=O)c2cc(OCCN3CCOCC3)nc(N3CCOCC3)n2)cc1C [Compound 289, 2-Morpholin-4-yl-6-(2-morpholin-4-yl-ethoxy)-pyrimidine-4-carboxylic acid (3-methyl-4-methylamino-phenyl)-amide] | ≥ 1
18 | Cc1cccc(NC(=O)c2cc(OCCN3CCOC3=O)nc(N3CCOCC3)n2)c1 [Compound 44, 2-Morpholin-4-yl-6-[2-(2-oxo-oxazolidin-3-yl)-ethoxy]-pyrimidine-4-carboxylic acid m-tolylamide] | ≥ 1
19 | COCCN(C)c1cc(C(=O)Nc2cccc(N(C)C)c2)nc(N2CCOCC2)c1 [Compound 159, 4-[(2-Methoxy-ethyl)-methyl-amino]-6-morpholin-4-yl-pyridine-2-carboxylic acid (3-dimethylamino-phenyl)-amide] | < 1

Next, values leading:

Row | IC50 [µM] | SMILES
20 | < 1 | CNc1cc(NC(=O)c2cc(OCCN3CCOCC3)nc(N3CCOCC3)n2)ccc1C [Compound 291, 2-Morpholin-4-yl-6-(2-morpholin-4-yl-ethoxy)-pyrimidine-4-carboxylic acid (4-methyl-3-methylamino-phenyl)-amide]
21 | < 1 | Cc1c(C)n(O)c2ccc(NC(=O)c3cc(OCCN4CCOCC4)nc(N4CCOCC4)n3)cc12 [Compound 320, 2-Morpholin-4-yl-6-(2-morpholin-4-yl-ethoxy)-pyrimidine-4-carboxylic acid (1-hydroxy-2,3-dimethyl-1H-indol-5-yl)-amide]
22 | < 1 | CNCCOc1cc(C(=O)Nc2ccc3c(c2)c(C)c(C)n3C)nc(N2CCOCC2)n1 [Compound 286, 6-(2-Methylamino-ethoxy)-2-morpholin-4-yl-pyrimidine-4-carboxylic acid (1,2,3-trimethyl-1H-indol-5-yl)-amide]
23 | < 1 | C/C(=N\N(C)C)c1cccc(NC(=O)c2cc(OCCN3CCOCC3)nc(N3CCOCC3)n2)c1 [Compound 153, (E)-N-(3-(1-(2,2-dimethylhydrazono)ethyl)phenyl)-2-morpholino-6-(2-morpholinoethoxy)pyrimidine-4-carboxamide]
24 | ≥ 1 | Cc1cc(NC(=O)c2cc(OCCN3CCOCC3)nc(N3CCOCC3)n2)ccc1N(C)C [Compound 288, 2-Morpholin-4-yl-6-(2-morpholin-4-yl-ethoxy)-pyrimidine-4-carboxylic acid (4-dimethylamino-3-methyl-phenyl)-amide]
25 | < 1 | Cc1c(C)n(C)c2ccc(NC(=O)c3cc(N4CCOCC4)nc(N4CCOCC4)n3)cc12 [Compound 283, 2,6-Di-morpholin-4-yl-pyrimidine-4-carboxylic acid (1,2,3-trimethyl-1H-indol-5-yl)-amide]
26 | ≥ 1 | O=C(Nc1cc(-c2cccs2)[nH]n1)c1cc(OCCN2CCOCC2)nc(N2CCOCC2)n1 [Compound 45, 2-Morpholin-4-yl-6-(2-morpholin-4-yl-ethoxy)-pyrimidine-4-carboxylic acid (5-thiophen-2-yl-1H-pyrazol-3-yl)-amide]
27 | < 1 | CO/N=C(\C)c1cccc(NC(=O)c2cc(OCCN3CCOCC3)nc(N3CCOCC3)n2)c1 [Compound 154, (E)-N-(3-(1-(methoxyimino)ethyl)phenyl)-2-morpholino-6-(2-morpholinoethoxy)pyrimidine-4-carboxamide]
28 | ≥ 1 | COCCN(C)c1cc(C(=O)Nc2cc(C(C)(C)C)ccc2O)nc(N2CCOCC2)n1 [Compound 225, 6-[(2-Methoxy-ethyl)-methyl-amino]-2-morpholin-4-yl-pyrimidine-4-carboxylic acid (5-tert-butyl-2-hydroxy-phenyl)-amide]
29 | < 1 | NC(=O)c1cccc(NC(=O)c2cc(OCCN3CCOCC3)nc(N3CCOCC3)n2)c1 [Compound 25, 2-Morpholin-4-yl-6-(2-morpholin-4-yl-ethoxy)-pyrimidine-4-carboxylic acid (3-carbamoyl-phenyl)-amide]
